Data: US20080119515A1, “Heterocyclic Kinase Inhibitors: Methods of Use and Synthesis” (priority 2003, published 2008)

What follows are compounds tested against T1, ZAP-70 (Homo sapiens, UniProt P43403) (assay: DELFIA assay (ZAP-70 kinase, phosphorylation of biotinylated poly(glu,tyr))). Settings: ZAP-70 DELFIA, class symbols; read-out: Activity (IC50 in vitro).
T1 sequence (P43403 1-619): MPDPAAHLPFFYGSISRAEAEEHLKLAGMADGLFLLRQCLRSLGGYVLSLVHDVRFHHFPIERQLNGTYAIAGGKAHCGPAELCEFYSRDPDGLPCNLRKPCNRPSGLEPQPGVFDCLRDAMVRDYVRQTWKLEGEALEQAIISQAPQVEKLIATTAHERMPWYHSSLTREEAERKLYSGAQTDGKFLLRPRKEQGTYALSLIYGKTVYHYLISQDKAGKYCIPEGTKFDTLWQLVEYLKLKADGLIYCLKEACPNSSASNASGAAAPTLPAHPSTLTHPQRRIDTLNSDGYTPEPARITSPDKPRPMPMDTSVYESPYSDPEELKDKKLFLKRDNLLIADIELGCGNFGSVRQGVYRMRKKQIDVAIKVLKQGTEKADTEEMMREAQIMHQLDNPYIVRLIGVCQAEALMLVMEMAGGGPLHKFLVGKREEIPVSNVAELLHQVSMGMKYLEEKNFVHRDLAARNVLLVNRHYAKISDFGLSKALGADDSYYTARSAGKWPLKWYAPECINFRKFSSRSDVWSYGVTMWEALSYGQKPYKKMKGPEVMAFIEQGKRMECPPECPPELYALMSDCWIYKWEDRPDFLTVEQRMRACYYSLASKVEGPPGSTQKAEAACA
Format: biochemical
Procedure: Before initiation of kinase reactions, compounds were pre-incubated with ZAP-70. Pre-incubation reactions contained 62.5 mM Mops pH 7.0, 12.5 mM MgCl2, 12.5% glycerol, 3.1 nM ZAP-70, 62.5 nM biotinylated poly(glu,Tyr), 0.1 mg/ml BSA, 6.25% DMSO and […] compound in a total volume of […]. After a 10 minute room temperature incubation, 10 ml of 5 mM ATP was added to start the reaction. Reactions were incubated at room temperature for 30 minutes then terminated by addition of 5 ml 500 mM EDTA. The amount of phosphate transferred to biotinylated poly(glu,tyr) was measured using the Dissociation Enhanced Lanthanide Fluorescence Immuno-assay (DELFIA) from Perkin Elmer according to manufacturers protocol. Briefly, biotinylated […] was captured on streptavidin coated plates, washed twice, then incubated with Europium labeled-anti-phosphotyrosine antibody. Free antibody was removed with six washes, Europium was dissociated from the antibody, and Europium fluorescence was measured at using an excitation wavelength of 340 nm and an emission wavelength of 615 nm.

| SMILES | IC50 |
| --- | --- |
| O=C(c1cc(NCc2ccccc2)nc2ccc(-c3ccc4c(c3)OCO4)cc12)N1CCC[C@H]1CO [Compound 80] | > 10 µM |
| CC(C)N(C)C[C@@H]1CCCN1C(=O)c1cc(NCc2ccccc2)nc2ccc(-c3ccc4c(c3)OCO4)cc12 [Compound 84] | > 10 µM |
| O=C(Nc1ccc2cn[nH]c2c1)c1cc(NCc2ccc(C(F)(F)F)cc2)nc2ccc(-c3ccc4c(c3)OCO4)cc12 [Compound 87] | > 10 µM |
| O=C(Nc1ccc2[nH]ncc2c1)c1cc(NCc2ccc(C(F)(F)F)cc2)nc2ccc(-c3ccc4c(c3)OCO4)cc12 [Compound 88] | > 10 µM |
| Clc1cc(CN2CCC[C@H]2CN2CCCC2)c2cc(-c3ccc4c(c3)OCO4)ccc2n1 [Compound 93] | > 10 µM |
| FC(F)(F)c1ccc(CNc2cc(CN3CCC[C@H]3CN3CCCC3)c3cc(-c4ccc5c(c4)OCO5)ccc3n2)cc1 [Compound 94] | 1 to 10 µM |
| O=C(c1cc(-c2ccc(F)c(Cl)c2)nc2ccc(-c3ccc(F)c(Cl)c3)cc12)N1CCC[C@H]1CN1CCCC1 [Compound 95] | 1 to 10 µM |
| N#Cc1cccc(-c2ccc3nc(-c4cccc(C#N)c4)cc(C(=O)N4CCC[C@H]4CN4CCCC4)c3c2)c1 [Compound 96] | 1 to 10 µM |
| O=C(c1cc(-c2ccc(Cl)c(Cl)c2)nc2ccc(-c3ccc(Cl)c(Cl)c3)cc12)N1CCC[C@H]1CN1CCCC1 [Compound 97] | 1 to 10 µM |
| Clc1cc(N2CCC[C@H]2CN2CCCC2)c2cc(-c3ccc4c(c3)OCO4)ccc2n1 [Compound 100] | > 10 µM |
| Clc1cc(N2CCC[C@H]2CN2CCCC2)nc2ccc(-c3ccc4c(c3)OCO4)cc12 [Compound 101] | 1 to 10 µM |
| O=C(Nc1cc(C(=O)N2CCC[C@H]2CN2CCCC2)c2cc(-c3ccc4c(c3)OCO4)ccc2n1)c1ccc(C(F)(F)F)cc1 [Compound 102] | 1 to 10 µM |
| FC(F)(F)c1ccc(CNc2cc(N3CCC[C@H]3CN3CCCC3)c3cc(-c4ccc5c(c4)OCO5)ccc3n2)cc1 [Compound 103] | 1 to 10 µM |
| FC(F)(F)c1ccc(CNc2cc(N3CCC[C@H]3CN3CCCC3)nc3ccc(-c4ccc5c(c4)OCO5)cc23)cc1 [Compound 104] | 1 to 10 µM |
| O=C(c1cc(NCc2ccc(C(F)(F)F)cc2)nc2ccc(-c3cc(F)cc(F)c3)cc12)N1CCC[C@H]1CN1CCCC1 [Compound 108] | 1 to 10 µM |
| O=C(c1cc(NCc2ccc(C(F)(F)F)cc2)nc2ccc(-c3ccc4c(c3)OCO4)cc12)N1CCCC1CCN1CCCC1 (stereo not shown) [Compound 109] | 1 to 10 µM |
| O=C(c1cc(NCc2ccc(C(F)(F)F)cc2)nc2ccc(-c3ccc4c(c3)OCO4)cc12)N1CCC(CN2CCCC2)C1 (stereo not shown) [Compound 110] | > 10 µM |
| O=C(NCc1ccc(C(F)(F)F)cc1)c1cc(NCc2ccc(C(F)(F)F)cc2)nc2ccc(-c3ccc4c(c3)OCO4)cc12 [Compound 111] | > 10 µM |

| SMILES | IC50 |
| --- | --- |
| O=C(c1cc(Cl)ncc1Cl)N1CCC[C@H]1CN1CCCC1 [Compound 112] | > 10 µM |
| O=C(c1cc(Cl)nc(Cl)c1)N1CCC[C@H]1CN1CCCC1 [Compound 113] | > 10 µM |
| O=C(c1cc(NCc2ccc(C(F)(F)F)cc2)ncc1Cl)N1CCC[C@H]1CN1CCCC1 [Compound 114] | > 10 µM |
| O=C(c1cc(Cl)nc(/C=C/c2ccccc2)c1)N1CCC[C@H]1CN1CCCC1 [Compound 115] | > 10 µM |
| O=C(c1cc(/C=C/c2ccccc2)nc(/C=C/c2ccccc2)c1)N1CCC[C@H]1CN1CCCC1 [Compound 116] | 1 to 10 µM |
| O=C(c1cc(NCc2ccc(C(F)(F)F)cc2)nc2cc(-c3ccc4c(c3)OCO4)ccc12)N1CCC[C@H]1CN1CCCC1 [Compound 118] | 1 to 10 µM |
| N#Cc1cccc(-c2ccc3c(C(=O)N4CCC[C@H]4CN4CCCC4)cc(NCc4ccc(C(F)(F)F)cc4)nc3c2)c1 [Compound 119] | > 10 µM |
| N#Cc1ccc(-c2ccc3c(C(=O)N4CCC[C@H]4CN4CCCC4)cc(NCc4ccc(C(F)(F)F)cc4)nc3c2)cc1 [Compound 120] | 1 to 10 µM |
| O=C(c1cc(NCc2ccc(C(F)(F)F)cc2)nc2cc(-c3cc(F)cc(F)c3)ccc12)N1CCC[C@H]1CN1CCCC1 [Compound 121] | 1 to 10 µM |
| O=C(c1cc(NCc2ccc(C(F)(F)F)cc2)nc2cc(-c3ccc(Cl)c(Cl)c3)ccc12)N1CCC[C@H]1CN1CCCC1 [Compound 122] | 1 to 10 µM |
| CS(=O)(=O)c1ccc(-c2ccc3c(C(=O)N4CCC[C@H]4CN4CCCC4)cc(NCc4ccc(C(F)(F)F)cc4)nc3c2)cc1 [Compound 123] | 1 to 10 µM |
| Cc1c(NCc2ccc(C(F)(F)F)cc2)nc2ccc(-c3ccc4c(c3)OCO4)cc2c1C(=O)N1CCC[C@H]1CN1CCCC1 [Compound 124] | 1 to 10 µM |
| O=C(c1cc2cc(-c3ccc4c(c3)OCO4)ccc2nc1NCc1ccc(C(F)(F)F)cc1)N1CCCC1CN1CCCC1 (stereo not shown) [Compound 128] | > 10 µM |
| CN(Cc1ccccc1)c1cc(C(=O)N2CCC[C@H]2CN2CCCC2)c2cc(Oc3ccccc3)ccc2n1 [Compound 129] | 1 to 10 µM |
| O=C(c1cc(/C=C/c2ccccc2)nc2ccc(-c3ccc4c(c3)OCO4)cc12)N1CCC[C@H]1CN1CCCC1 [Compound 130] | 1 to 10 µM |
| O=C(c1cc(/C=C/c2ccc(F)cc2)nc2ccc(-c3ccc4c(c3)OCO4)cc12)N1CCC[C@H]1CN1CCCC1 [Compound 131] | 1 to 10 µM |
| O=C(c1cc(/C=C/c2ccc(Cl)cc2)nc2ccc(-c3ccc4c(c3)OCO4)cc12)N1CCC[C@H]1CN1CCCC1 [Compound 132] | 1 to 10 µM |

The next lines start with the values.

| IC50 | SMILES |
| --- | --- |
| 1 to 10 µM | CN(c1ccccn1)c1cc(C(=O)N2CCC[C@H]2CN2CCCC2)c2cc(-c3ccc4c(c3)OCO4)ccc2n1 [Compound 78] |
| 1 to 10 µM | O=C(c1cc(N2CCN(C3CCCC3)CC2)nc2ccc(-c3ccc4c(c3)OCO4)cc12)N1CCC[C@H]1CN1CCCC1 [Compound 79] |
| 1 to 10 µM | CCN(CC)C[C@@H]1CCCN1C(=O)c1cc(NCc2ccccc2)nc2ccc(-c3ccc4c(c3)OCO4)cc12 [Compound 81] |
| 1 to 10 µM | O=C(c1cc(NCc2ccccc2)nc2ccc(-c3ccc4c(c3)OCO4)cc12)N1CCC[C@H]1CN1CCCCC1 [Compound 82] |
| 1 to 10 µM | O=C(c1cc(NCc2ccccc2)nc2ccc(-c3ccc4c(c3)OCO4)cc12)N1CCC[C@H]1CN1CCOCC1 [Compound 83] |
| 1 to 10 µM | O=C(Nc1ccc2cn[nH]c2c1)c1cc(NCc2ccccc2)nc2ccc(-c3ccc4c(c3)OCO4)cc12 [Compound 85] |
| 1 to 10 µM | O=C(Nc1ccc2[nH]ncc2c1)c1cc(NCc2ccccc2)nc2ccc(-c3ccc4c(c3)OCO4)cc12 [Compound 86] |
| 1 to 10 µM | O=C(c1cc(N2CCC[C@H]2CN2CCCC2)nc2ccc(-c3ccc4c(c3)OCO4)cc12)N1CCC[C@H]1CN1CCCC1 [Compound 89] |
| 1 to 10 µM | O=C(c1cc(N2CCC(O)CC2)nc2ccc(-c3ccc4c(c3)OCO4)cc12)N1CCC[C@H]1CN1CCCC1 [Compound 90] |
| < 1 µM | O=C(c1cc(N2CCC[C@@H]2CO)nc2ccc(-c3ccc4c(c3)OCO4)cc12)N1CCC[C@H]1CN1CCCC1 [Compound 91] |
| < 1 µM | O=C(c1cc(N2CCCc3ccccc32)nc2ccc(-c3ccc4c(c3)OCO4)cc12)N1CCC[C@H]1CN1CCCC1 [Compound 92] |
| < 1 µM | O=C(c1cc(OCc2ccc(C(F)(F)F)cc2)nc2ccc(-c3ccc4c(c3)OCO4)cc12)N1CCC[C@H]1CN1CCCC1 [Compound 98] |
| < 1 µM | O=C(c1cc(OCc2ccc(Cl)cc2)nc2ccc(-c3ccc4c(c3)OCO4)cc12)N1CCC[C@H]1CN1CCCC1 [Compound 99] |
| < 1 µM | O=C(c1cc(NCc2ccc(C(F)(F)F)cc2)nc2ccc(-c3ccc(Cl)c(Cl)c3)cc12)N1CCC[C@H]1CN1CCCC1 [Compound 105] |
| < 1 µM | N#Cc1cccc(-c2ccc3nc(NCc4ccc(C(F)(F)F)cc4)cc(C(=O)N4CCC[C@H]4CN4CCCC4)c3c2)c1 [Compound 106] |
| < 1 µM | N#Cc1ccc(-c2ccc3nc(NCc4ccc(C(F)(F)F)cc4)cc(C(=O)N4CCC[C@H]4CN4CCCC4)c3c2)cc1 [Compound 107] |
| < 1 µM | CC(Nc1cc(C(=O)N2CCC[C@H]2CN2CCCC2)c2cc(-c3ccc4c(c3)OCO4)ccc2n1)c1ccc(F)cc1 (stereo partly shown) [Compound 117] |
| < 1 µM | O=C(c1cc(NCc2ccc(C(F)(F)F)cc2)nc2ccc(-c3ccc4c(c3)OC(F)(F)C(F)(F)O4)cc12)N1CCC[C@H]1CN1CCCC1 [Compound 125] |
| < 1 µM | O=C(c1cc(NCc2ccc(C(F)(F)F)cc2)nc2ccc(-c3ccc4c(c3)OCCO4)cc12)N1CCC[C@H]1CN1CCCC1 [Compound 126] |
| < 1 µM | O=C(c1cc(NCc2ccc(C(F)(F)F)cc2)nc2ccc(-c3ccc4cc[nH]c4c3)cc12)N1CCC[C@H]1CN1CCCC1 [Compound 127] |
